Molecules are shown by their SMILES.

IC50 data for 13 compounds are collected here from patent US9334286B2, “Pharmacologically active compounds” (Cancer Research Technology Limited, priority 2012, dated 2016).

The target in this test is full length MPS1 (Homo sapiens (Human), UniProt P33981). Briefly: Measurement of inhibition of MPS1 kinase (Caliper EZ reader, fluorescent labelled peptide H236). The test is classed as biochemical. The conditions noted are these: full length MPS1 12.5 nM or 3 nM, peptide H236 5 μM, ATP 10 μM, 60 min at room temperature.
full length MPS1, sequence (P33981 whole entry): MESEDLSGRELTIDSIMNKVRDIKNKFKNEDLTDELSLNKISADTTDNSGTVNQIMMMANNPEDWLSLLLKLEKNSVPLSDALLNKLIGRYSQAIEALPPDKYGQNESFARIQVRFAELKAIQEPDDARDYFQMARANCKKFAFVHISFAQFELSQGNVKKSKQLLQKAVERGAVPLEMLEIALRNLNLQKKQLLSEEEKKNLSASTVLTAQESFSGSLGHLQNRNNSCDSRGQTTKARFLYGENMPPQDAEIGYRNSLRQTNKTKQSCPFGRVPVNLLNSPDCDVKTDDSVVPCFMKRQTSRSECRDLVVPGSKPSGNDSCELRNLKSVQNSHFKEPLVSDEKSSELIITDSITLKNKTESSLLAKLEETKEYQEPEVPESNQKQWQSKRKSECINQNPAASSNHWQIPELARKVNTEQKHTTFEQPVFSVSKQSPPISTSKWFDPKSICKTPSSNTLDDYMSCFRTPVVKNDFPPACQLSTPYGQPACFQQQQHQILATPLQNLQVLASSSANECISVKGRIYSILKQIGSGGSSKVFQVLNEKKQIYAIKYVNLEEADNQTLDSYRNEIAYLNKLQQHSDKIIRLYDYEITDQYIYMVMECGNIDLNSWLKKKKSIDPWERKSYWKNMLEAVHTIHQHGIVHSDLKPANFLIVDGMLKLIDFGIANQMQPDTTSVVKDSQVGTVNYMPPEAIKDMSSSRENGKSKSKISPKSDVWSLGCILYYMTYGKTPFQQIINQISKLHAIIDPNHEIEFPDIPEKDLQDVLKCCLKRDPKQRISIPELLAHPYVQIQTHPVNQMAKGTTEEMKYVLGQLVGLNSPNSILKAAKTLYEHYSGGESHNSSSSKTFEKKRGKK

`COc1cc(C(=O)N2CC(OC)C2)ccc1Nc1cc2cc(-c3cnn(CC(C)(C)O)n3)ccc2cn1` [Example 97, (4-(6-(2-(2-Hydroxy-2-methylpropyl)-2H-1,2,3-triazol-4-yl)isoquinolin-3-ylamino)-3-methoxyphenyl)(3-methoxyazetidin-1-yl)methanone] yielded an IC50 of 9e-09 M. That is a single-digit nanomolar value.

Compound `COc1cc(-c2cnn(C)c2)ccc1Nc1cc2nc(-c3cnn(C)c3)ccc2cn1` [Example 100, N-(2-Methoxy-4-(1-methyl-1H-pyrazol-4-yl)phenyl)-2-(1-methyl-1H-pyrazol-4-yl)-1,6-naphthyridin-7-amine] yielded an IC50 of 6e-09 M. `COc1cc(-c2cnn(C)c2)ccc1Nc1cc2nc(-c3cnn(CC(C)(C)O)c3)ccc2cn1` [Example 101, 1-(4-(7-(2-Methoxy-4-(1-methyl-1H-pyrazol-4-yl)phenylamino)-1,6-naphthyridin-2-yl)-1H-pyrazol-1-yl)-2-methylpropan-2-ol] returned an IC50 of 3e-09 M. `COc1cc(-c2cnc(C)n2C)ccc1Nc1cc2nc(-c3cnn(CC(C)(C)O)c3)ccc2cn1` [Example 102, 1-(4-(7-(4-(1,2-Dimethyl-1H-imidazol-5-yl)-2-methoxyphenylamino)-1,6-naphthyridin-2-yl)-1H-pyrazol-1-yl)-2-methylpropan-2-ol] came in with a half-maximal inhibitory concentration (IC50) of 2e-09 M.

In turn, `CCOc1cc(-c2nncn2C)ccc1Nc1cc2nc(-c3cnn(CC(C)(C)O)c3)ccc2cn1` [Example 103, 1-(4-(7-(2-Ethoxy-4-(4-methyl-4H-1,2,4-triazol-3-yl)phenylamino)-1,6-naphthyridin-2-yl)-1H-pyrazol-1-yl)-2-methylpropan-2-ol] registered a 50% inhibitory concentration (IC50) of 1e-09 M.

In turn, `COc1cc(C(=O)N2CC(OC)C2)ccc1Nc1cc2nc(-c3cnn(CC(C)(C)O)c3)ccc2cn1` [Example 104, (4-(2-(1-(2-Hydroxy-2-methylpropyl)-1H-pyrazol-4-yl)-1,6-naphthyridin-7-ylamino)-3-methoxyphenyl)(3-methoxyazetidin-1-yl)methanone] registered an IC50 of 2e-09 M. This IC50 lies about 2-fold higher than the previous one. For `COc1cc(-c2nncn2C)ccc1Nc1cc2nc(-c3cnn(CC(C)(C)O)c3)ccc2cn1` [Example 105, 1-(4-(7-(2-Methoxy-4-(4-methyl-4H-1,2,4-triazol-3-yl)phenylamino)-1,6-naphthyridin-2-yl)-1H-pyrazol-1-yl)-2-methylpropan-2-ol], the IC50 is 1e-09 M. The same measure, in the same setting: under `COc1cc(-c2cnc(C)n2C)ccc1Nc1cc2nc(-c3cnn(CC4(O)CCC4)c3)ccc2cn1` [Example 106, 1-((4-(7-(4-(1,2-Dimethyl-1H-imidazol-5-yl)-2-methoxyphenylamino)-1,6-naphthyridin-2-yl)-1H-pyrazol-1-yl)methyl)cyclobutanol] stands 1e-09 M; under `COc1cc(-c2cnn(C)c2)ccc1Nc1cc2nc(C(=O)N(C)C)ccc2cn1` [Example 107, 7-(2-Methoxy-4-(1-methyl-1H-pyrazol-4-yl)phenylamino)-N,N-dimethyl-1,6-naphthyridine-2-carboxamide], 4.11e-07 M.

The compound `COc1cc(-c2cnc3n2CCNC3)ccc1Nc1cc2cc(-c3cnn(CC(C)(C)O)c3)ccc2cn1` [Example 111, 1-(4-(3-((2-Methoxy-4-(5,6,7,8-tetrahydroimidazo[1,2-a]pyrazin-3-yl)phenyl)amino)-isoquinolin-6-yl)-1H-pyrazol-1-yl)-2-methylpropan-2-ol] showed an IC50 of 3e-09 M. This IC50 lies about 140-fold lower than the previous one. As to `COc1cc(-c2nnc3n2CCNC3)ccc1Nc1cc2cc(-c3cnn(CC(C)(C)O)c3)ccc2cn1` [Example 112, 1-(4-(3-(2-Methoxy-4-(5,6,7,8-tetrahydro-[1,2,4]triazolo[4,3-a]pyrazin-3-yl)phenylamino)-isoquinolin-6-yl)-1H-pyrazol-1-yl)-2-methylpropan-2-ol], the midpoint of inhibition, the IC50, lay at 2e-09 M. This IC50 is about 1.5-fold lower than that of the compound before. On the same count and under the same terms, under `COc1cc(-c2cnc(C)n2C)ccc1Nc1cc2cc(-c3cnn(C4CCNCC4)c3)ccc2cn1` [Example 113, N-(4-(1,2-dimethyl-1H-imidazol-5-yl)-2-methoxyphenyl)-6-(1-(piperidin-4-yl)-1H-pyrazol-4-yl)isoquinolin-3-amine] stands 4e-09 M. Regarding `COc1cc(-c2cnc(C)n2C)ccc1Nc1ncc2ccc(-c3cnn(C)c3)nc2n1` [Example 115, N-(4-(1,2-dimethyl-1H-imidazol-5-yl)-2-methoxyphenyl)-7-(1-methyl-1H-pyrazol-4-yl)pyrido[2,3-d]pyrimidin-2-amine], the IC50 (unit printed as (M)) amounted to 1.6e-08 M. That is a double-digit nanomolar value.
